Columns and labels:
[1] = target: HDAC6 human recombinant (Homo sapiens (Human), UniProt Q9UBN7); test: HDAC enzyme activity inhibition (in vitro), HDAC6 assay; type: biochemical; settings: samples at 0.1, 1, 10, 100 and 1000 nM; 37° C. 60 minutes; fluorescence Ex 390, Em 460
[2] = target: HDAC1 (Homo sapiens (Human), UniProt Q13547); test: HDAC enzyme activity inhibition (in vitro), HDAC1 Fluorimetric Drug Discovery Assay Kit; type: biochemical; settings: samples at 100, 1000 and 10000 nM; 37° C. 60 minutes; fluorescence Ex 390, Em 460
Chain of HDAC1 (Q13547 whole entry): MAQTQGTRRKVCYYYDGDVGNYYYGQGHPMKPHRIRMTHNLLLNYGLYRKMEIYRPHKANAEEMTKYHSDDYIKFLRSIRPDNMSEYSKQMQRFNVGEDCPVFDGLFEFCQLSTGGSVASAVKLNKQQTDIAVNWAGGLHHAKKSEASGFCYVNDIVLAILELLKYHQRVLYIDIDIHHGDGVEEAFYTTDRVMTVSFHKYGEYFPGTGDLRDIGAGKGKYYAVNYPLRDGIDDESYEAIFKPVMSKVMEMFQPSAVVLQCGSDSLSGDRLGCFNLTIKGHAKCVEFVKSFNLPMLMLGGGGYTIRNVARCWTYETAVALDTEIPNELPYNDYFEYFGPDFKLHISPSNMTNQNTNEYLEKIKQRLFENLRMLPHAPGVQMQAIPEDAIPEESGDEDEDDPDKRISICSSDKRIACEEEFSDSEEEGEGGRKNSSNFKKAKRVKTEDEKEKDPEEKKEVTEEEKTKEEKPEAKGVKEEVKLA

Chain of HDAC6 human recombinant (Q9UBN7 whole entry): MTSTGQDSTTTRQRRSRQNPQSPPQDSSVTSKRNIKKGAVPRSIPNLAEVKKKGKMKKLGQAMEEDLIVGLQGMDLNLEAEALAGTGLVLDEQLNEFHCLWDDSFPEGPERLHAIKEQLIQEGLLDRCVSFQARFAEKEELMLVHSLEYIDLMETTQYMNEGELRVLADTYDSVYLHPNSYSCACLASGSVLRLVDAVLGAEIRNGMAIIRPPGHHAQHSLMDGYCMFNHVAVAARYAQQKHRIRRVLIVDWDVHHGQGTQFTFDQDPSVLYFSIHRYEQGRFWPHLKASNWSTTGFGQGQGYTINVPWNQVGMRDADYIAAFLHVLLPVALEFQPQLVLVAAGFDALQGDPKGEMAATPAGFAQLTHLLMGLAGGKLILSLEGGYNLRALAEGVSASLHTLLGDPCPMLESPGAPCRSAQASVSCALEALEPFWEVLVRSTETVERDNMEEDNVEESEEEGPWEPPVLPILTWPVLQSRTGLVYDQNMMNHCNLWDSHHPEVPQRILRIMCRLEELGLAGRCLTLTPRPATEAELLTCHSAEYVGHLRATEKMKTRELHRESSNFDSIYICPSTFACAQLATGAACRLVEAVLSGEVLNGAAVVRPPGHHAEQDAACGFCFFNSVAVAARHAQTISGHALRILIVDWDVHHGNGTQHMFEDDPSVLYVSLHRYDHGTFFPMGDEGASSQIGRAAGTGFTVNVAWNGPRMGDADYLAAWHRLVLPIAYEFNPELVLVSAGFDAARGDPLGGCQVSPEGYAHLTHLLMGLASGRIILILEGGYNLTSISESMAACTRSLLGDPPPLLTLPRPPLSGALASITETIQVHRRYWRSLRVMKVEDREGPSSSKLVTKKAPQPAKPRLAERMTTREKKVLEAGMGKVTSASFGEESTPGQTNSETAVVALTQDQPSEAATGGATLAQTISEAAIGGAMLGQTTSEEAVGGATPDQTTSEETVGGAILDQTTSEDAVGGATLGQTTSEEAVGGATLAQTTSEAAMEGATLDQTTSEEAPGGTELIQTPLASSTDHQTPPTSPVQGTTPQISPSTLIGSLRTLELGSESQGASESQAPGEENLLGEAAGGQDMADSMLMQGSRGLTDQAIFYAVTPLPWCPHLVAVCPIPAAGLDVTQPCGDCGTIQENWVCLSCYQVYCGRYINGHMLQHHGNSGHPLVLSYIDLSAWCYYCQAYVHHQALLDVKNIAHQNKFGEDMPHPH

Structure (SMILES) | IC50 [1] [nM] | IC50 [2] [µM]
CN1CCN(c2ccc3c(c2)C(C)(C)C(=O)N(Cc2ncc(-c4nnc(C(F)F)o4)cn2)C3=O)CC1 [Compound 153, 2-((5-(5-(difluoromethyl)-1,3,4-oxadiazole-2-yl)pyrimidine-2-yl)methyl)-4,4-dimethyl-6-(4-methylpiperazine-1-yl)isoquinoline-1,3(2H,4H)-dione] | 118 | > 10
CC1(C)C(=O)N(Cc2ccc(-c3nnc(C(F)F)o3)cn2)C(=O)c2cc(N3CCN(CC(F)(F)F)CC3)ccc21 [Compound 133, 2-((5-(5-(difluoromethyl)-1,3,4-oxadiazole-2-yl)pyridine-2-yl)methyl)-4,4-dimethyl-7-(4-(2,2,2-trifluoroethyl)piperazine-1-yl)isoquinoline-1,3(2H,4H)-dione] | 76 | > 10
Cn1c(=O)n(Cc2ccc(-c3nnc(C(F)F)o3)cn2)c(=O)c2cc(-c3ccccc3F)ccc21 [Compound 89, 3-((5-(5-(difluoromethyl)-1,3,4-oxadiazole-2-yl)pyridine-2-yl)methyl)-6-(2-fluorophenyl)-1-methylquinazoline-2,4(1H,3H)-dione] | 54 | > 10
Cc1noc(C)c1-c1cccc2c1C(=O)N(Cc1ccc(-c3nnc(C(F)F)o3)cn1)C(=O)C2(C)C [Compound 96, 2-((5-(5-(difluoromethyl)-1,3,4-oxadiazole-2-yl)pyridine-2-yl)methyl)-8-(3,5-dimethylisooxazole-4-yl)-4,4-dimethylisoquinoline-1,3(2H,4H)-dione] | 88 | > 10
Cn1c(=O)n(Cc2ccc(-c3nnc(C(F)F)o3)cn2)c(=O)c2ccc(-c3ccncc3)cc21 [Compound 101, 3-((5-(5-(difluoromethyl)-1,3,4-oxadiazole-2-yl)pyridine-2-yl)methyl)-1-methyl-7-(pyridine-4-yl)quinazoline-2,4(1H,3H)-dione] | 33 | > 10
CN1CCN(c2ccc3c(c2)C(=O)N(Cc2ccc(-c4nnc(C(F)F)o4)cn2)C(=O)C3(C)C)CC1 [Compound 118, 2-((5-(5-(difluoromethyl)-1,3,4-oxadiazole-2-yl)pyridine-2-yl)methyl)-4,4-dimethyl-7-(4-methylpiperazine-1-yl)isoquinoline-1,3(2H,4H)-dione] | 22 | > 10
CC1(C)C(=O)N(Cc2ccc(-c3nnc(C(F)F)o3)cn2)C(=O)c2ccc(N3CCN(CC(F)(F)C(F)F)CC3)cc21 [Compound 137, 2-((5-(5-(difluoromethyl)-1,3,4-oxadiazole-2-yl)pyridine-2-yl)methyl)-4,4-dimethyl-6-(4-(2,2,3,3-tetrafluoropropyl)piperazine-1-yl)isoquinoline-1,3(2H,4H)-dione] | 89 | > 10
CC1(C)C(=O)N(Cc2ccc(-c3nnc(C(F)F)o3)cn2)C(=O)c2ccc(C3CCN(C4COC4)CC3)cc21 [Compound 61, 2-((5-(5-(difluoromethyl)-1,3,4-oxadiazole-2-yl)pyridine-2-yl)methyl)-4,4-dimethyl-6-(1-(oxetan-3-yl)piperidine-4-yl)isoquinoline-1,3(2H,4H)-dione] | 35 | > 10
O=c1c2ccccc2n(CC2CCN(C3COC3)CC2)c(=O)n1Cc1ccc(-c2nnc(C(F)F)o2)cn1 [Compound 16, 3-((5-(5-(difluoromethyl)-1,3,4-oxadiazole-2-yl)pyridine-2-yl)methyl)-1-((1-(oxetan-3-yl)piperidine-4-yl)methyl)quinazoline-2,4(1H,3H)-dione] | 257 | > 10
CC1(C)C(=O)N(Cc2ccc(-c3nnc(C(F)F)o3)cn2)C(=O)c2ccc(N3CCN(CC4CCCCC4)CC3)cc21 [Compound 48, 6-(4-(cyclohexylmethyl)piperazine-1-yl)-2-((5-(5-(difluoromethyl)-1,3,4-oxadiazole-2-yl)pyridine-2-yl)methyl)-4,4-dimethylisoquinoline-1,3(2H,4H)-dione] | 342 | > 10
Cn1c(=O)n(Cc2ccc(-c3nnc(C(F)F)o3)cn2)c(=O)c2cc(-c3ccco3)ccc21 [Compound 87, 3-((5-(5-(difluoromethyl)-1,3,4-oxadiazole-2-yl)pyridine-2-yl)methyl)-6-(furan-2-yl)-1-methylquinazoline-2,4(1H,3H)-dione] | 23 | > 10
CC1(C)C(=O)N(Cc2ccc(-c3nnc(C(F)F)o3)cn2)C(=O)c2ccc(-c3cccnc3)cc21 [Compound 104, 2-((5-(5-(difluoromethyl)-1,3,4-oxadiazole-2-yl)pyridine-2-yl)methyl)-4,4-dimethyl-6-(pyridine-3-yl)isoquinoline-1,3(2H,4H)-dione] | 20 | > 10
CC1(C)C(=O)N(Cc2ccc(-c3nnc(C(F)F)o3)cn2)C(=O)c2ccc(-c3ccccc3F)cc21 [Compound 103, 2-((5-(5-(difluoromethyl)-1,3,4-oxadiazole-2-yl)pyridine-2-yl)methyl)-6-(2-fluorophenyl)-4,4-dimethylisoquinoline-1,3(2H,4H)-dione] | 59 | > 10
CCC(F)(F)CN1CCN(c2ccc3c(c2)C(C)(C)C(=O)N(Cc2ccc(-c4nnc(C(F)F)o4)cn2)C3=O)CC1 [Compound 139, 6-(4-(2,2-difluorobutyl)piperazine-1-yl)-2-((5-(5-(difluoromethyl)-1,3,4-oxadiazole-2-yl)pyridine-2-yl)methyl)-4,4-dimethylisoquinoline-1,3(2H,4H)-dione] | 683 | > 10
CC1(C)C(=O)N(Cc2ccc(-c3nnc(C(F)F)o3)cn2)C(=O)c2cc(-c3cccc4[nH]ccc34)ccc21 [Compound 115, 2-((5-(5-(difluoromethyl)-1,3,4-oxadiazole-2-yl)pyridine-2-yl)methyl)-7-(1H-indole-4-yl)-4,4-dimethylisoquinoline-1,3(2H,4H)-dione] | 59 | > 10
O=c1c2ccccc2n(Cc2ccc(-c3nnc(C(F)F)o3)cn2)c(=O)n1Cc1ccc(-c2nnc(C(F)F)o2)cn1 [Compound 78, 1,3-bis((5-(5-(difluoromethyl)-1,3,4-oxadiazole-2-yl)pyridine-2-yl)methyl)quinazoline-2,4(1H,3H)-dione] | 40 | > 10
CC1(C)C(=O)N(Cc2ccc(-c3nnc(C(F)F)o3)cn2)C(=O)c2cc(C3CCN(CC(F)(F)F)CC3)ccc21 [Compound 135, 2-((5-(5-(difluoromethyl)-1,3,4-oxadiazole-2-yl)pyridine-2-yl)methyl)-4,4-dimethyl-7-(1-(2,2,2-trifluoroethyl)piperidine-4-yl)isoquinoline-1,3(2H,4H)-dione] | 100 | > 10
CC1(C)C(=O)N(Cc2ccc(-c3nnc(C(F)F)o3)cn2)C(=O)c2ccc(N3CCN(CC(=O)N4CCCC4)CC3)cc21 [Compound 33, 2-((5-(5-(difluoromethyl)-1,3,4-oxadiazole-2-yl)pyridine-2-yl)methyl)-4,4-dimethyl-6-(4-(2-oxo-2-(pyrrolidine-1-yl)ethyl)piperazine-1-yl)isoquinoline-1,3(2H,4H)-dione] | 34 | > 10
CC(C)(C)OC(=O)N1CCN(c2ccc3c(c2)C(=O)N(Cc2ccc(-c4nnc(C(F)F)o4)cn2)C(=O)C3(C)C)CC1 [Compound 116, tert-butyl 4-(2-((5-(5-(difluoromethyl)-1,3,4-oxadiazole-2-yl)pyridine-2-yl)methyl)-4,4-dimethyl-1,3-dioxo-1,2,3,4-tetrahydroisoquinoline-7-yl)piperazine-1-carboxylate] | 200 | > 10
CC1(C)C(=O)N(Cc2ccc(-c3nnc(C(F)F)o3)cn2)C(=O)c2ccc(N3CCN(C4COC4)CC3)cc21 [Compound 30, 2-((5-(5-(difluoromethyl)-1,3,4-oxadiazole-2-yl)pyridine-2-yl)methyl)-4,4-dimethyl-6-(4-(oxetan-3-yl)piperazine-1-yl)isoquinoline-1,3(2H,4H)-dione] | 46 | > 10
O=C1c2ccc(Br)cc2C2(CCCCC2)C(=O)N1Cc1ccc(-c2nnc(C(F)F)o2)cn1 [Compound 107, 6′-bromo-2′-((5-(5-(difluoromethyl)-1,3,4-oxadiazole-2-yl)pyridine-2-yl)methyl)-1′H-spiro[cyclohexane-1,4′-isoquinoline]-1′,3′(2′H)-dione] | 148 | > 10
Cn1c(=O)n(Cc2ccc(-c3nnc(C(F)F)o3)cn2)c(=O)c2ccc(-c3cccnc3)cc21 [Compound 100, 3-((5-(5-(difluoromethyl)-1,3,4-oxadiazole-2-yl)pyridine-2-yl)methyl)-1-methyl-7-(pyridine-3-yl)quinazoline-2,4(1H,3H)-dione] | 37 | > 10
CC1(C)C(=O)N(Cc2ccc(-c3nnc(C(F)F)o3)cn2)C(=O)c2cc(C3CCN(C4CCC4)CC3)ccc21 [Compound 145, 7-(1-cyclobutylpiperidine-4-yl)-2-((5-(5-(difluoromethyl)-1,3,4-oxadiazole-2-yl)pyridine-2-yl)methyl)-4,4-dimethylisoquinoline-1,3(2H,4H)-dione] | 37 | > 10
O=c1c2ccccc2n(CCN2CCCCC2)c(=O)n1Cc1ccc(-c2nnc(C(F)F)o2)cn1 [Compound 9, 3-((5-(5-(difluoromethyl)-1,3,4-oxadiazole-2-yl)pyridine-2-yl)methyl)-1-(2-(piperidine-1-yl)ethyl)quinazoline-2,4(1H,3H)-dione] | 126 | > 10
CCN1CCN(c2ccc3c(c2)C(CC)(CC)C(=O)N(Cc2ccc(-c4nnc(C(F)F)o4)cn2)C3=O)CC1 [Compound 142, 2-((5-(5-(difluoromethyl)-1,3,4-oxadiazole-2-yl)pyridine-2-yl)methyl)-4,4-diethyl-6-(4-ethylpiperazine-1-yl)isoquinoline-1,3(2H,4H)-dione] | 81 | > 10

Reference: patent US12440484B2, “1,3,4-oxadiazole homophthalimide derivative compounds as histone deacetylase 6 inhibitor, and the pharmaceutical composition comprising the same” (Chong Kun Dang Pharmaceutical Corp., priority 2019, dated 2025)
